Consider 16 compounds from ChEMBL document CHEMBL3616390, “Design and synthesis of N-[6-(Substituted Aminoethylideneamino)-2-Hydroxyindan-1-yl]arylamides as selective and potent muscarinic M₁ agonists” (Bioorg Med Chem Lett, 2015).

Holding throughout (format): functional, cell-based
The target of experiment [1] is T1, Muscarinic acetylcholine receptor M1 (Homo sapiens, UniProt P11229).
T1 sequence (P11229 whole entry): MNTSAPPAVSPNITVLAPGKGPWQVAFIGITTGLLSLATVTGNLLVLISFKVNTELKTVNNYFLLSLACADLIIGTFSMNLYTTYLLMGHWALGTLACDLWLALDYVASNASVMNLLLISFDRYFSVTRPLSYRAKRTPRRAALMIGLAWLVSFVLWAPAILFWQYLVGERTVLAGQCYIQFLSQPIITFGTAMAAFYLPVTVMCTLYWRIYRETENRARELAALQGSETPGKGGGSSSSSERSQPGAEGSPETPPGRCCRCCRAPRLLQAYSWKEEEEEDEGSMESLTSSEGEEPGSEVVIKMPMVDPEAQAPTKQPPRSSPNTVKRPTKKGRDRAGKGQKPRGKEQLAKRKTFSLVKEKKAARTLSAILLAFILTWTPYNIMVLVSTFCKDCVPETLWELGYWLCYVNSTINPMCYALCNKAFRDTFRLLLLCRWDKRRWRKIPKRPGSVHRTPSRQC
As to the kind of experiment: Agonist activity at human muscarinic M1 receptor expressed in CHO cells after 30 mins by GTPgamma35S binding assay.

Experiment [2] addresses T2, Muscarinic acetylcholine receptor M2 (Homo sapiens, UniProt P08172).
T2 sequence (P08172 whole entry): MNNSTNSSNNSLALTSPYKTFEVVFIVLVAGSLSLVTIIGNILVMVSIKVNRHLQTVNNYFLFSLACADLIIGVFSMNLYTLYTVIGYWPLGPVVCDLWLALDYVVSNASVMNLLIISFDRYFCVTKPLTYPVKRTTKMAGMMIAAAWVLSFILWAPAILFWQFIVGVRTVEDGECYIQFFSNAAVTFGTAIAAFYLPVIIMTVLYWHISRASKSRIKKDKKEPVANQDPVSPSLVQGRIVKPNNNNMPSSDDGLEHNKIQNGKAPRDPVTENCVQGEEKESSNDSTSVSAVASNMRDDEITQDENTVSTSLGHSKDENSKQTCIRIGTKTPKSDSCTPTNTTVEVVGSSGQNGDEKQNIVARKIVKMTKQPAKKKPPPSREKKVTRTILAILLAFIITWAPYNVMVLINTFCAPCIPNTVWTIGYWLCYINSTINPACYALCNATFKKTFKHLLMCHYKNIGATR
As to the kind of experiment: Agonist activity at human muscarinic M2 receptor expressed in CHO cells after 30 mins by GTPgamma35S binding assay.

The target of experiment [3] is Muscarinic acetylcholine receptor M3 (Homo sapiens, UniProt P20309). As to the kind of experiment: Agonist activity at human muscarinic M3 receptor expressed in CHO cells after 30 mins by GTPgamma35S binding assay. Conditions: cho; call rule not given here.
Sequence of Muscarinic acetylcholine receptor M3 (P20309 whole entry): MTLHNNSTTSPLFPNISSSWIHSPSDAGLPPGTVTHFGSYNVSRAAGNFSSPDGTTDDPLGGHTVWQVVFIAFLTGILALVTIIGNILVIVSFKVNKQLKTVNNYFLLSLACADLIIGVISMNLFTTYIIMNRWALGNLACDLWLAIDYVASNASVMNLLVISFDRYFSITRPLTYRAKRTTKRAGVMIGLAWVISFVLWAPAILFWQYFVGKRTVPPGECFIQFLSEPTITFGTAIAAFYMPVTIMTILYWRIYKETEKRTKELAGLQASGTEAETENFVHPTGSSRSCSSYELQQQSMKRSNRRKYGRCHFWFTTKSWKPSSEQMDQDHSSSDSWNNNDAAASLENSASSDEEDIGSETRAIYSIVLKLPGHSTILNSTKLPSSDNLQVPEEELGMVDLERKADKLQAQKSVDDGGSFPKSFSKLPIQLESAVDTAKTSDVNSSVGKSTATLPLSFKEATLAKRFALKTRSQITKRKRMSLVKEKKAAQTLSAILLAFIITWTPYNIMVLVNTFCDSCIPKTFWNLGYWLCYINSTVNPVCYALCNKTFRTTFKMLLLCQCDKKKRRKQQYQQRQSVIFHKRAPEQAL
Experiment [4] deals with T3, Muscarinic acetylcholine receptor M4 (Homo sapiens, UniProt P08173).
T3 sequence (P08173 whole entry): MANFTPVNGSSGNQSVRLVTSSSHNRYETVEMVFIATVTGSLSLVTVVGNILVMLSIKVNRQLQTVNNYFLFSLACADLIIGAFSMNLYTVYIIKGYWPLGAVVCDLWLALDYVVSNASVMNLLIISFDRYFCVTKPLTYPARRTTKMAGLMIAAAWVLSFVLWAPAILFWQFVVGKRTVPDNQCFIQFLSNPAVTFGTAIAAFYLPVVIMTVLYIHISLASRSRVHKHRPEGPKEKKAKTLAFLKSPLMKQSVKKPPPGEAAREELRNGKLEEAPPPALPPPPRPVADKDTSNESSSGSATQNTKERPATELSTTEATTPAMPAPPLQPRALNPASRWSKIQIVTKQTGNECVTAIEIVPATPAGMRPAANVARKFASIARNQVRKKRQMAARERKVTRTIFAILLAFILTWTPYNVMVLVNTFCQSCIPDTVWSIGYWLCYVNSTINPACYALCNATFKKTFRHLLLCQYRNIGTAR
As to the kind of experiment: Agonist activity at human muscarinic M4 receptor expressed in CHO cells after 30 mins by GTPgamma35S binding assay. (GTPγS is a poorly hydrolysed GTP analogue; its binding reports G protein activation.)

The target in experiment [5] is T4, Muscarinic acetylcholine receptor M5 (Homo sapiens, UniProt P08912).
T4 sequence (P08912 whole entry): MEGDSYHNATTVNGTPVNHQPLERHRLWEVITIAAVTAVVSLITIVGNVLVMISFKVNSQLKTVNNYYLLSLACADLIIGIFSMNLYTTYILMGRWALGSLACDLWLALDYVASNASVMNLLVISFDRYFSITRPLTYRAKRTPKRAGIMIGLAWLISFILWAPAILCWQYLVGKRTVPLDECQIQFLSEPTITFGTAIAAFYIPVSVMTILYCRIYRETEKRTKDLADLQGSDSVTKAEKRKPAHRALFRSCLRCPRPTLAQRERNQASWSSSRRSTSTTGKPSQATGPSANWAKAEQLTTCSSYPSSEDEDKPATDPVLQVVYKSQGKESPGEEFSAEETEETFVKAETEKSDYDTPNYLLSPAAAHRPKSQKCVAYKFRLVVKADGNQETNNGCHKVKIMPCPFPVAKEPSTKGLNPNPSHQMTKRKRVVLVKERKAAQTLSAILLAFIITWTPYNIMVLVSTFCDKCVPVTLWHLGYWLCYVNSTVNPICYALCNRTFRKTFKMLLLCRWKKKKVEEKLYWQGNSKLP
As to the kind of experiment: Agonist activity at human muscarinic M5 receptor expressed in CHO cells after 30 mins by GTPgamma35S binding assay. Conditions: cho.

Experiment [6] deals with T5, Muscarinic acetylcholine receptor M1 (Homo sapiens) (UniProt P11229).
T5 sequence (whole entry): T1 sequence (P11229 whole entry)
As to the kind of experiment: Agonist activity at human muscarinic M1 receptor expressed in CHO cells after 30 mins by GTPgamma35S binding assay relative to oxotremorine-M.

The target of experiment [7] is T6, Muscarinic acetylcholine receptor M4 (Homo sapiens) (UniProt P08173).
T6 sequence (whole entry): T3 sequence (P08173 whole entry)
As to the kind of experiment: Agonist activity at human muscarinic M4 receptor expressed in CHO cells after 30 mins by GTPgamma35S binding assay relative to oxotremorine-M.

Experiment [8] has as its target T7, Muscarinic acetylcholine receptor M2 (Homo sapiens) (UniProt P08172).
T7 sequence (whole entry): T2 sequence (P08172 whole entry)
As to the kind of experiment: Agonist activity at human muscarinic M2 receptor expressed in CHO cells after 30 mins by GTPgamma35S binding assay relative to oxotremorine-M.

Bounds are passed on as bounds.

In general, EC50 refers to the concentration needed to bring the measured effect to its halfway point. Regarding `COc1ccc(CCN/C(C)=N/c2ccc3c(c2)[C@@H](NC(=O)c2ccc(Br)cc2)[C@H](O)C3)cc1`, the EC50 was 426 nM in experiment [1]; 411 nM in experiment [2]; “Not Active” in experiment [3]; 1360 nM in experiment [4]; “Not Active” in experiment [5]. Further, the Efficacy in experiment [6] was determined as 84.5%; in experiment [7], 29.9%; in experiment [8], 38.9%.

`C/C(=N\c1ccc2c(c1)[C@@H](NC(=O)c1ccc(F)cc1)[C@H](O)C2)N(C)Cc1ccc(F)cc1`: the EC50 in experiment [1] is 392 nM; in experiment [2], 242 nM; in experiment [3], “Not Active”; in experiment [4] it was 392 nM; in experiment [5], “Not Active”. For the same compound, the Efficacy is 76.6% in experiment [6], 28.4% in experiment [7] and 43.6% in experiment [8].

With `COc1ccccc1CN/C(C)=N/c1ccc2c(c1)[C@@H](NC(=O)c1ccc(Br)cc1)[C@H](O)C2`, the EC50 in experiment [1] was 572 nM; in experiment [3], “Not Active”; in experiment [5], “Not Active”. Also, the figures for the Efficacy in experiment [6], in experiment [7] and in experiment [8] were 71.5%, less than 20% and less than 20%, respectively.

On to `COc1ccc(C(=O)N[C@@H]2c3cc(/N=C(\C)N(C)Cc4ccc(F)cc4)ccc3C[C@H]2O)cc1`, for which the EC50 in experiment [1] is 166 nM; in experiment [3] it was “Not Active”; in experiment [5], “Not Active”. Besides, the Efficacy in experiment [6] was 93.2%; in experiment [7] it was less than 20%; in experiment [8] it was less than 20%.

For the compound `C/C(=N\c1ccc2c(c1)[C@@H](NC(=O)c1ccc(Br)cc1)[C@H](O)C2)N(C)Cc1ccc(F)cc1`, the EC50 is 154 nM in experiment [1]; 604 nM in experiment [2]; “Not Active” in experiment [3]; 3720 nM in experiment [4]; “Not Active” in experiment [5]. Further, the Efficacy in experiment [6] turned out to be 107%; in experiment [7], 34.3%; in experiment [8], 30.9%.

With `C/C(=N\c1ccc2c(c1)[C@@H](NC(=O)c1ccc(Br)cc1)[C@H](O)C2)N(C)CCc1ccc(F)cc1`, the EC50 in experiment [1] was 80.9 nM; in experiment [2], 342 nM; in experiment [3], “Not Active”; in experiment [5], “Not Active”. Further, the Efficacy is 68.5% in experiment [6], less than 20% in experiment [7] and 20.8% in experiment [8].

Consider `COc1ccc(N/C(C)=N/c2ccc3c(c2)[C@@H](NC(=O)c2ccc(Br)cc2)[C@H](O)C3)cc1`, for which the figures for the half-maximal effective concentration (EC50) in experiment [1], in experiment [3] and in experiment [5] were 105 nM, “Not Active” and “Not Active”, respectively. The results for the Efficacy in experiment [6], in experiment [7] and in experiment [8] were 35.3%, less than 20% and less than 20%, respectively.

Regarding `COc1ccc(CN/C(C)=N/c2ccc3c(c2)[C@@H](NC(=O)c2ccc(Br)cc2)[C@H](O)C3)cc1`, the EC50 in experiment [1] was 837 nM; in experiment [3] it was “Not Active”; in experiment [5], “Not Active”. The Efficacy in experiment [6] was 32.1%; in experiment [7] it was less than 20%; in experiment [8], less than 20%.

As for `O=C(N[C@@H]1c2cc(/N=C(/Nc3ccc(F)cc3)C(F)(F)F)ccc2C[C@H]1O)c1ccc(Br)cc1`, the EC50 entry in experiment [3] and in experiment [5] was “Not Active” each time. The Efficacy in experiment [6], in experiment [7] and in experiment [8] was less than 20% in each case.

Consider `C/C(=N\c1ccc2c(c1)[C@@H](NC(=O)c1ccc(C(F)(F)F)cc1)[C@H](O)C2)N(C)Cc1ccc(F)cc1`, for which the EC50 in experiment [1] was 36 nM; in experiment [2], 172 nM; in experiment [3], “Not Active”; in experiment [4], 393 nM; in experiment [5], “Not Active”. Also, the Efficacy in experiment [6] was 106%; in experiment [7], 30.8%; in experiment [8], 25.4%.

As for `C/C(=N\c1ccc2c(c1)[C@@H](NC(=O)c1ccc(Br)cc1)[C@H](O)C2)NCc1ccccc1F`, the EC50 in experiment [1] is 87 nM; in experiment [2], 118 nM; in experiment [3], “Not Active”; in experiment [4] it was 227 nM; in experiment [5], “Not Active”. Further, the results for the Efficacy in experiment [6], in experiment [7] and in experiment [8] were 78.5%, 25.7% and 33.6%, respectively.

For the compound `C/C(=N\c1ccc2c(c1)[C@@H](NC(=O)c1ccc(C)cc1)[C@H](O)C2)N(C)Cc1ccc(F)cc1`, the 50% effective concentration (EC50) in experiment [1] is 49.5 nM; in experiment [2] it was 65.4 nM; in experiment [3], “Not Active”; in experiment [4], 235 nM; in experiment [5], “Not Active”. For the same compound, the figures for the Efficacy in experiment [6], in experiment [7] and in experiment [8] were 106%, 41.5% and 45.1%, respectively.

Regarding `C/C(=N\c1ccc2c(c1)[C@@H](NC(=O)c1ccc(Br)cc1)[C@H](O)C2)NCc1cccc(F)c1`, the EC50 in experiment [1] was 48.4 nM; in experiment [2], 435 nM; in experiment [3], “Not Active”; in experiment [4], 355 nM; in experiment [5], “Not Active”. For the same compound, the Efficacy in experiment [6] stood at 94%; in experiment [7], 33.4%; in experiment [8], 26.6%.

With `COc1cccc(CN/C(C)=N/c2ccc3c(c2)[C@@H](NC(=O)c2ccc(Br)cc2)[C@H](O)C3)c1`, the figures for the EC50 in experiment [1], in experiment [3] and in experiment [5] were 198 nM, “Not Active” and “Not Active”, respectively. Besides, the Efficacy in experiment [6] was 60%; in experiment [7] it was less than 20%; in experiment [8], less than 20%.

Consider `C/C(=N\c1ccc2c(c1)[C@@H](NC(=O)c1ccc(Br)cc1)[C@H](O)C2)NCCc1ccc(F)cc1`, for which the half-maximal effective concentration (EC50) in experiment [1] is 183 nM; in experiment [2], 211 nM; in experiment [3], “Not Active”; in experiment [5] it was “Not Active”. Further, the Efficacy is 90.6% in experiment [6], less than 20% in experiment [7] and 38.5% in experiment [8].

With `C/C(=N\c1ccc2c(c1)[C@@H](NC(=O)c1ccc(Cl)cc1)[C@H](O)C2)N(C)Cc1ccc(F)cc1`, the EC50 in experiment [1] was 31 nM; in experiment [2], 65.5 nM; in experiment [3], “Not Active”; in experiment [4], 405 nM; in experiment [5] it was “Not Active”. Besides, the Efficacy in experiment [6] came to 112%; in experiment [7] it was 42.8%; in experiment [8], 45%.
